* marks the point of attachment. X1 = CC1(C)C(/C=C/C2=C(Cl)C(=C/C=C3/N(CCCCCC(=O)*)c4ccc5cc(S(=O)(=O)O)ccc5c4C3(C)C)/CCC2)=[N+](CCCS(=O)(=O)[O-])c2ccc(N(CCCS(=O)(=O)O)CCCS(=O)(=O)O)cc21; X2 = CC(C)(C)c1cc(/C=C/C=C2\N(CCCS(=O)(=O)O)c3ccc(S(=O)(=O)O)cc3C2(C)CCCC(=O)CCN2C(=O)CC(*)C2=O)c2ccc(N(CCCS(=O)(=O)[O-])CCCS(=O)(=O)O)cc2[o+]1

Assay type in all cases: biochemical
Data set [1] deals with T1, ADAMTS13 (Homo sapiens, UniProt Q76LX8).
T1 sequence (Q76LX8 75-1427): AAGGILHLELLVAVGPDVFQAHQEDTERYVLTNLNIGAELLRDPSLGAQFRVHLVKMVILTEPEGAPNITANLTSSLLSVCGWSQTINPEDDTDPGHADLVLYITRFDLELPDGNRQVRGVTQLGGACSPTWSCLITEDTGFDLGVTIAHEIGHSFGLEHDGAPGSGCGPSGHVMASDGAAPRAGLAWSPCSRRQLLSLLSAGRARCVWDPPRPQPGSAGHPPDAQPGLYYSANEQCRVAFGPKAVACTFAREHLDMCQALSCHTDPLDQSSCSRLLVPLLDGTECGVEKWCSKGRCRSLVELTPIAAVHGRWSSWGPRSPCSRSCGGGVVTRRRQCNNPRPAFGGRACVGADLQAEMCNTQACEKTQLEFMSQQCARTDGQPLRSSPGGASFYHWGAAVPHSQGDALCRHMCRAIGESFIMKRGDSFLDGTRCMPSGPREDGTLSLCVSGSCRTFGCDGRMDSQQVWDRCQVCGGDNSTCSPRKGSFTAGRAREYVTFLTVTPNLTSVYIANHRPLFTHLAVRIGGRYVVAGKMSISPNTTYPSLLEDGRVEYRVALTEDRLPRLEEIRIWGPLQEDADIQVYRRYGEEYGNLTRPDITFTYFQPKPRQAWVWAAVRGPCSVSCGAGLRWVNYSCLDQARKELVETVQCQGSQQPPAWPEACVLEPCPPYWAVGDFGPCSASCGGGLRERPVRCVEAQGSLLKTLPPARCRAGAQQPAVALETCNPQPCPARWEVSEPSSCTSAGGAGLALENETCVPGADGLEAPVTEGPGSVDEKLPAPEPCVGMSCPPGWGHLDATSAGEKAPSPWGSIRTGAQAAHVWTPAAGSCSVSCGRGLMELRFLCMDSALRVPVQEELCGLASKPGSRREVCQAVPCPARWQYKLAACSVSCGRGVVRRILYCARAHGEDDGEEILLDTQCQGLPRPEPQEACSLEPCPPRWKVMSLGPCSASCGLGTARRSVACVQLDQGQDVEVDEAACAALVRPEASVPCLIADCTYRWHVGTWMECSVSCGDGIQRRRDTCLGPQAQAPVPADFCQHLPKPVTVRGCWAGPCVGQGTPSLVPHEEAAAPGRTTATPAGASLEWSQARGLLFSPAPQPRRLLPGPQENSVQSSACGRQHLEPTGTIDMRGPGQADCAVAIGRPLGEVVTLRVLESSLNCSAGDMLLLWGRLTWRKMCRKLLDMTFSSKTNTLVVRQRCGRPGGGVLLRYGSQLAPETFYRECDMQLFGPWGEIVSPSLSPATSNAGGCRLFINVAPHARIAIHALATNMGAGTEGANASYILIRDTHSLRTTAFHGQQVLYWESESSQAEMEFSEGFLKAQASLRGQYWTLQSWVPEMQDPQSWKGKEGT
The experiment in a line: ADAMTS13 inhibitor titer assay with FRETS-rVWF71 substrate. The following applies: TTP patients with detectable inhibitor; printed 1.4-fold to >5-fold. Set-up: from tissue; host or cells: human plasma or serum (pooled normal plasma, healthy donors, TTP patients). The procedure: Plasma samples with ADAMTS13 protease activity <10% were tested for the presence of an ADAMTS13 inhibitor. Plasma samples were serially diluted two-fold with assay buffer (50 mM HEPES, pH 7.4, 150 mM NaCl, 10 mM CaCl2, and 0.05% Tween-20) to yield 8 dilutions. In duplicate, PNP (50 μL) was mixed with an equal volume (50 μL) of undiluted test plasma and each serially diluted sample. Control conditions included PNP mixed with an equal volume of cleavage buffer. The microplate containing the samples was sealed with adhesive film (Sealplate, Excel Scientific, Victorville, Calif.) and incubated at 37° C. for 1 h. Reaction was initiated by addition of 100 μL of assay buffer containing 2 μM FRETS-rVWF71. Fluorescence emission was monitored and initial reaction rates were determined.
The inhibitor titer was determined by fitting the initial reaction rates to a four parameter logistic model or sigmoidal dose response equation by nonlinear regression (Prism): Rate(D)=[…]/(1+10^((log T−log D)*H)) […]
A fixed amount of ADAMTS13 in PNP (100 μL) was preincubated with serially diluted plasma samples and assayed for ADAMTS13 activity. Reaction rates were analyzed according to a model for competitive sigmoidal dose-response inhibition to obtain the dilution of plasma at which ADAMTS13 activity is decreased by 50%, and the inverse of the dilution is the inhibitor titer (FIG. 7C). […]

Data set [2] has as its target T1, ADAMTS13. The experiment in a line: Effect of bilirubin and hemoglobin on FRETS-rVWF71 ADAMTS13 assays. Details: FRETS-rVWF71 cleavage by plasma ADAMTS13 (50 μL) was assessed in 200 μL reactions; from tissue; host or cells: human plasma or serum (pooled normal plasma, healthy donors, TTP patients). The conditions noted are these: >20 mg/dL (250 μM) conjugated bilirubin.

A further data set deals with T2, plasma ADAMTS13 (Homo sapiens, UniProt Q76LX8).
T2 construct: from tissue; host or cells: human plasma or serum (pooled normal plasma, healthy donors, TTP patients)
T2 sequence (Q76LX8 75-1427): T1 sequence (Q76LX8 75-1427)
The data set is described as follows: Kinetics of FRETS-rVWF71 cleavage by plasma ADAMTS13 (Michaelis-Menten). The procedure: In these experiments, FRETS-rVWF71 cleavage by plasma ADAMTS13 (50 μL) was assessed in 200 μL reactions containing 50 mM HEPES, pH 7.4, 10 mM CaCl2, 150 mM NaCl, and 0.05% Tween-20, and varying concentrations of FRETS-rVWF71. The concentration of ADAMTS13 in PNP is ˜1.03 μg/ml (Feys, H. B., et al. J. Thromb. Haemost 4:955-62, 2006), or ˜6 nM for a molecular mass of 170 kDa. For each concentration of substrate, the relationship between product fluorescence and concentration was determined directly by cleaving FRETS-rVWF71 to completion with excess recombinant ADAMTS13 MDTCS (Feys, H. B., et al. J. Thromb. Haemost. 7:2088-95, 2009) and measuring the fluorescence. Control assays contained plasma that was completely deficient in ADAMTS13. The initial velocities (nM/min) as a function of substrate concentration were fitted to the Michealis-Menten equation by nonlinear regression analysis (Prism, GraphPad).
(FIG. 6). […] (Anderson, P. J., et al. J. Biol. Chem. 281:850-7, 2006).

Regarding “X1-GQAPNLVYMVTGC(X2)PASDEIRRLPGDIQVVPIGVGPNANVQELERIGWPNAPILIQDFETLPREAPDLVLQR [FRETS-rVWF71]”, the “inhibitor titers higher than with FRETS-VWF73” value against ADAMTS13 [1] is on record as at least 1.4 fold. Besides, at ADAMTS13 [2], the “sensitivity of assay to conjugated bilirubin” value is “insensitive”. Besides, the “decrease of the rate of catalysis relative to FRETS-VWF73” value at plasma ADAMTS13 (kcat compared with FRETS-VWF73) is listed as around 8 fold. In addition, the catalytic constant (kcat) – broadly, the number of substrate molecules converted per active site and unit of time at saturation – with plasma ADAMTS13 (plasma ADAMTS13, 50 mM HEPES pH 7.4, 10 mM CaCl2, 150 mM NaCl, 30° C.) is 0.113 s⁻¹.

The record behind these values is patent publication US8663912B2, “Fluorogenic substrate for ADAMTS13” (Washington University, priority 2011, dated 2014).
